Results as given in patent publication US8871753B2, “Macrocyclic compounds and their use as kinase inhibitors” (Incyte Corporation, priority 2008, dated 2014).
Structures can show the parent of a compound that is named as a salt. Where two headings read alike, the source gives them in different places.

What was measured:
Format in all cases: biochemical
[1] = target: TYK2 (Homo sapiens, UniProt P29597); experiment: TYK2 kinase inhibition (Table A1)
[2] = target: T1, Recombinant Human Anaplastic Lymphoma Kinase (Homo sapiens, UniProt Q9UM73); experiment: ALK HTRF kinase assay
T1 construct: purchased Invitrogen, Carlsbad, Calif
In short: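 TR-FRET read-out (Eu anti-pTyr antibody + streptavidin-APC) of biotin-peptide phosphorylation by recombinant human enzyme; IC50 by sigmoidal fit with top/bottom baselines and Hill slope.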

[3] = target: T2, human JAK2 (a.a. 828-1132) (Homo sapiens, UniProt O60674); experiment: In vitro JAK kinase assay (HTRF, phosphorylation of a biotinylated peptide), JAK2
T2 construct: JAK2 (a.a. 828-1132); His tag (N); made in house; host or cells: insect cells (baculovirus)
In short: (§1)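 Kinase reactions ran at room temperature for 1 h with ATP matched per isoform (JAK1 90 μM, JAK2 30 μM, JAK3 3 μM). After an EDTA stop, the phosphorylated biotin-peptide was read by HTRF using Eu-Py20 and SA-APC after 40 min binding.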

[4] = target: T3, human JAK1 (a.a. 837-1142) (Homo sapiens, UniProt P23458); experiment: In vitro JAK kinase assay (HTRF, phosphorylation of a biotinylated peptide), JAK1; conditions: read-out: JAK1 IC50
T3 construct: human JAK1 (a.a. 837-1142); His tag (N); made in house; host or cells: insect cells (baculovirus)
In short: as §1

[5] = target: T4, human JAK3 (a.a. 781-1124) (Homo sapiens, UniProt P52333); experiment: In vitro JAK kinase assay (HTRF, phosphorylation of a biotinylated peptide), JAK3
T4 construct: JAK3 (a.a. 781-1124); His tag (N); made in house; host or cells: insect cells (baculovirus)
In short: as §1

[6] = compound at a concentration of 500 nM or 1 mM (not specified), cells shown as percentage
[7] = compound at 500 nM or 1 mM, 90 μM ATP
[8] = method AA1 (30 μM ATP) or AA2 (1000 μM ATP), not stated per value
[9] = method AA1 (90 μM ATP) or AA2 (1000 μM ATP), not stated per value
[10] = method AA1 (3 μM ATP) or AA2 (1000 μM ATP), not stated per value
[11] = Table B1, cells without percent sign

T3 sequence (P23458 849-1154): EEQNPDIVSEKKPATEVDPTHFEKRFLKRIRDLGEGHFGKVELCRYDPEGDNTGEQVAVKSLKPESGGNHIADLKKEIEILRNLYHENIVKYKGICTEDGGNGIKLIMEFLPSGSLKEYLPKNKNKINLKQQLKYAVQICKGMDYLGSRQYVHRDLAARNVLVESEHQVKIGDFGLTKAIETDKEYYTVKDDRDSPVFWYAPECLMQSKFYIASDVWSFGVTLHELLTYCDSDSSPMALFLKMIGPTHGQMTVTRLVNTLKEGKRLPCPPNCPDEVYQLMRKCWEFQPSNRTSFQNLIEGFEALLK
T4 sequence (P52333 781-1124): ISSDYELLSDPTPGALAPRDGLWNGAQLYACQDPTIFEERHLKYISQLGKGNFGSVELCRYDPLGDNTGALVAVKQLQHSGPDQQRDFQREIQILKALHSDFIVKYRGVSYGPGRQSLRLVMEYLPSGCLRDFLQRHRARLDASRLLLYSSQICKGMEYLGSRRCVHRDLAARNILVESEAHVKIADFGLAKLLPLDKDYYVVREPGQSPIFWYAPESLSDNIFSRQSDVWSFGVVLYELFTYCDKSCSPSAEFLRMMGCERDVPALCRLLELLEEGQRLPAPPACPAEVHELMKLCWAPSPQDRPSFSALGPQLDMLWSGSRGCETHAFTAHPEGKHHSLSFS
T2 sequence (O60674 828-1132): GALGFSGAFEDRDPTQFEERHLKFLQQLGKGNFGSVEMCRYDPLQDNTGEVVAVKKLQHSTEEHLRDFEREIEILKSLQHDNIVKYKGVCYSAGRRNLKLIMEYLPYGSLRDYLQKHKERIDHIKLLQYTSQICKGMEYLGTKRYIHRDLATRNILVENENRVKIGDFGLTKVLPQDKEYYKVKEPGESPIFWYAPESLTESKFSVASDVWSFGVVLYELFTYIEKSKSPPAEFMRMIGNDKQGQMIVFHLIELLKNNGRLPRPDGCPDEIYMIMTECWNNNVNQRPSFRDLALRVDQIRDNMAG
Chain of TYK2 (P29597 whole entry): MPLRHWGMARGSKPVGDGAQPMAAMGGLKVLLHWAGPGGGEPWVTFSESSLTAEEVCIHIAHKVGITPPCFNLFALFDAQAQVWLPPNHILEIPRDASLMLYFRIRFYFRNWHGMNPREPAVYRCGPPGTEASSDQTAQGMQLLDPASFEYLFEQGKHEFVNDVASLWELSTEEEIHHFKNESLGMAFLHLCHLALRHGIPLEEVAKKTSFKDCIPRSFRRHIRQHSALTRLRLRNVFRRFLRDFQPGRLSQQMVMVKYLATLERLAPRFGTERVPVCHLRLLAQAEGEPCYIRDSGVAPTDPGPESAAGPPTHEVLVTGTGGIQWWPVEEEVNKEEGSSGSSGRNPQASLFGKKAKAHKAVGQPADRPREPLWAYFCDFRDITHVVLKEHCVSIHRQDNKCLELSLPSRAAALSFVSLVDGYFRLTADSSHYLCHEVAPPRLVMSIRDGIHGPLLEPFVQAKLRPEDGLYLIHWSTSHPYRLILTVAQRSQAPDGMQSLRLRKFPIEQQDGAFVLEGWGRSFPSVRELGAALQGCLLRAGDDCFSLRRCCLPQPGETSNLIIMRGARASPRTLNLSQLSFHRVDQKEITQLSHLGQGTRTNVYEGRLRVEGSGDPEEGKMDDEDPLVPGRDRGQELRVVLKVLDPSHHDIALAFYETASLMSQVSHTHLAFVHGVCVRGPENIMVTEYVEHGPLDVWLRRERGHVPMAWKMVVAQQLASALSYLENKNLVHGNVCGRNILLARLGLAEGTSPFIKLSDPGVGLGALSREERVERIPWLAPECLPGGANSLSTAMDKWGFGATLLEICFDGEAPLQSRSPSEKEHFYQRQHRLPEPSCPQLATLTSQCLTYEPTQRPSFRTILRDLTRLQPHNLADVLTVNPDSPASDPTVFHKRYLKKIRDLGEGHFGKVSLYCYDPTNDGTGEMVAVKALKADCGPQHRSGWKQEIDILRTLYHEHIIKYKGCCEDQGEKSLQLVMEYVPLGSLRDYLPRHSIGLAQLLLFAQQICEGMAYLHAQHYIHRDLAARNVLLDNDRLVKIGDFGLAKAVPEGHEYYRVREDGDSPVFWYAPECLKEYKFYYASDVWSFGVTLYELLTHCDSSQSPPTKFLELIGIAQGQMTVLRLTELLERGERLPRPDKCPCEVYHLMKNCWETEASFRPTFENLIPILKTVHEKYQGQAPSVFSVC
T1 sequence (Q9UM73 19-1620): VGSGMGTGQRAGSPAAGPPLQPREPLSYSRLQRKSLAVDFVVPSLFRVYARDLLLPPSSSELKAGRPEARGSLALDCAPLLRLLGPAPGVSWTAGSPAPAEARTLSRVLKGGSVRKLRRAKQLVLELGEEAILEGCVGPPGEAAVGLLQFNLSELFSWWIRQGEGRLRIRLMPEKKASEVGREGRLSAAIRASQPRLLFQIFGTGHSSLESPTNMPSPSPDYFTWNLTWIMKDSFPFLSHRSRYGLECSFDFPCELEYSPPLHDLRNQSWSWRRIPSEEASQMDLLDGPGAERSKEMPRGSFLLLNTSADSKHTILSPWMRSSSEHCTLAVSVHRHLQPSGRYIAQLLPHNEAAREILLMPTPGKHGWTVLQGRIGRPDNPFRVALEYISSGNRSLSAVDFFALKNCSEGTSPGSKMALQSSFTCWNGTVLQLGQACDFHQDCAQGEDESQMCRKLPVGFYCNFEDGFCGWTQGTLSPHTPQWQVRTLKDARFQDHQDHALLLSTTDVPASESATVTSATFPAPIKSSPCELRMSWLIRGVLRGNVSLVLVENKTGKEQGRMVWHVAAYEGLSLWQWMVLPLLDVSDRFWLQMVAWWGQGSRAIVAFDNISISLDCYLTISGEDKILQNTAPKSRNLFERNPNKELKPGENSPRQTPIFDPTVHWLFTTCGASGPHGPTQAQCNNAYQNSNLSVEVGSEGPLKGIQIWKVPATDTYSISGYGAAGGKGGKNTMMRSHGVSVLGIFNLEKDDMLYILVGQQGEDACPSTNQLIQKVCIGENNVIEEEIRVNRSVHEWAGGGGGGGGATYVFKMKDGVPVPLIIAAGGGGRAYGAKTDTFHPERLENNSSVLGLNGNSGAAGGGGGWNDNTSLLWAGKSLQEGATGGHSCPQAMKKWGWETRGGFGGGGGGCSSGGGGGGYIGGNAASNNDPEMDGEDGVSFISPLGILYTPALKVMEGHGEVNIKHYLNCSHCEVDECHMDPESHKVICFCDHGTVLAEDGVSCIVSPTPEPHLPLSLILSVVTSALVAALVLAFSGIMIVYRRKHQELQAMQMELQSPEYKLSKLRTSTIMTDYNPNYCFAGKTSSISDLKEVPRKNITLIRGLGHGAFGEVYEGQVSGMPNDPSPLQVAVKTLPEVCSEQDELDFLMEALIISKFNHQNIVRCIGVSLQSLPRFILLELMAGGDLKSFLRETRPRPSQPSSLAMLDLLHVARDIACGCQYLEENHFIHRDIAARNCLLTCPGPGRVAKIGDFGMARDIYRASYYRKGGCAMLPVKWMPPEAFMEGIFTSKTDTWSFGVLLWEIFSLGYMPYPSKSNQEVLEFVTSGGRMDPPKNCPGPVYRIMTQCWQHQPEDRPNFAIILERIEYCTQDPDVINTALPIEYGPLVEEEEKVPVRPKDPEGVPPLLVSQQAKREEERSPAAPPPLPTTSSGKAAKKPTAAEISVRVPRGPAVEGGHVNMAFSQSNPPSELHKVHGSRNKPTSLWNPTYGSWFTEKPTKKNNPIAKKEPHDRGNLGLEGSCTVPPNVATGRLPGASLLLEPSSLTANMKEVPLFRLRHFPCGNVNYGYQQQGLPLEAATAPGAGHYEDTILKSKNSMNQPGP

IC50 ([1]; Table B1) | ALK % of inhibition at a concentration of 500 nM or 1 mM [2, 6] | IC50 ([3]; Table B1) | IC50 ([4]; Table B1) | IC50 ([5]; Table B1) | IC50 [1] | ALK % of inhibition at a concentration of 500 nM or 1 mM [2, 7] | IC50 [3, 8] | IC50 [4, 9] | IC50 [5, 10] | Structure (SMILES) | also measured
9.2 nM | 32% | 1.8 nM | 0.69 nM | 13 nM |  |  |  |  |  | O=C(Nc1ccc2cc1CCc1cccc(c1)Nc1ncc(Cl)c(n1)N2)Nc1ccccc1OC(F)F [Example B128, N-[6-Chloro-2,4,8,22-tetraazatetracyclo[14.3.1.1(3,7).1(9,13)]docosa-1(20), 3(22),4,6,9(21),10,12,16,18-nonaen-12-yl]-N′-[2-(difluoromethoxy)phenyl]urea trifluoroacetate] | 
 |  |  |  |  | 2.3 nM | 23% | 2.4 nM | 1.5 nM | 54 nM | CC(=O)N1CCC(CC(=O)Nc2ccc3cc2CCc2cccc(c2)Nc2ncc(Cl)c(n2)N3)CC1 [Example A55, 2-(1-Acetylpiperidin-4-yl)-N-[6-chloro-2,4,8,22-tetraazatetracyclo[14.3.1.1(3,7).1(9,13)]docosa-1(20),3(22),4,6,9(21),10,12,16,18-nonaen-12-yl]acetamide trifluoroacetate] | 
 |  |  |  |  | > 200 nM | 39% | 120 nM | 15 nM | > 200 nM | O=C(CC1CCN(c2ncco2)CC1)Nc1ccc2cc1CCc1cncc(c1)Nc1ncc(Cl)c(n1)N2 [Example A246, N-[6-Chloro-2,4,8,18,22-pentaazatetracyclo[14.3.1.1(3,7).1(9,13)]docosa-1(20),3(22),4,6,9(21),10,12,16,18-nonaen-12-yl]-2-[1-(1,3-oxazol-2-yl)piperidin-4-yl]acetamide tris(trifluoroacetate)] | 
 |  |  |  |  | 140 nM | 35% | 80 nM | 7.1 nM | > 200 nM | O=C(CC1CCN(S(=O)(=O)c2ccccc2)CC1)Nc1ccc2cc1CCc1cncc(c1)Nc1ncc(Cl)c(n1)N2 [Example A195, N-[6-Chloro-2,4,8,18,22-pentaazatetracyclo[14.3.1.1(3,7).1(9,13)]docosa-1(20),3(22),4,6,9(21),10,12,16,18-nonaen-12-yl]-2-[1-(phenylsulfonyl)piperidin-4-yl]acetamide bis(trifluoroacetate)] | 
226 nM | 3.7% | 177 nM | 70 nM | 236 nM |  |  |  |  |  | O=C(Nc1ccc2cc1CCc1cccc(c1)Nc1ncc(Cl)c(n1)N2)NC1CCNCC1 [Example B181, N-[6-Chloro-2,4,8,22-tetraazatetracyclo[14.3.1.1(3,7).1(9,13)]docosa-1(20),3(22),4,6,9(21),10,12,16,18-nonaen-12-yl]-N′-piperidin-4-ylurea dihydrochloride] | 
43 nM |  | 265 nM | 27 nM | > 400 nM |  |  |  |  |  | O=C(Nc1ccc2cc1CCc1cncc(c1)Nc1ncc(Cl)c(n1)N2)N1CCN(c2cccc(Cl)c2)CC1 [Example B306, N-[6-Chloro-2,4,8,18,22-pentaazatetracyclo[14.3.1.1(3,7).1(9,13)]docosa-1(20),3(22),4,6,9(21),10,12,16,18-nonaen-12-yl]-4-(3-chlorophenyl)piperazine-1-carboxamide tris(trifluoroacetate)] | ALK % of inhibition at a concentration of 500 nM or 1 mM ([2]; percentage inhibition of the example compound at a concentration of 500 nM or 1 mM (not specified which)): 72%
29 nM | 44% | 12 nM | 11 nM | 57 nM |  |  |  |  |  | Cc1ncoc1C(=O)Nc1ccc2cc1CCc1cccc(c1)Nc1ncc(Cl)c(n1)N2 [Example B78, N-[6-Chloro-2,4,8,22-tetraazatetracyclo[14.3.1.1(3,7).1(9,13)]docosa-1(20),3(22),4,6,9(21),10,12,16,18-nonaen-12-yl]-4-methyl-1,3-oxazole-5-carboxamide trifluoroacetate] | 
 |  |  |  |  |  |  |  |  |  | CN1c2cccc(c2)OCCc2cccc(c2)Nc2ncc(Cl)c1n2 [Example D9, 6-Chloro-8-methyl-14-oxa-2,4,8,23-tetraazatetracyclo[15.3.1.1(3,7).1(9,13)]tricosa-1(21),3(23),4,6,9(22),10,12,17,19-nonaene trifluoroacetate] | IC50 ([1]; Table D1): 137 nM; IC50 ([2]; Table D1, 90 μM ATP): > 952 nM; IC50 ([3]; Table D1): 47 nM; IC50 ([4]; Table D1): 183 nM; IC50 ([5]; Table D1): 489 nM
77 nM | 12% | 55 nM | 200 nM | > 500 nM |  |  |  |  |  | O=C(Nc1ccc2cc1CCc1cccc(c1)Nc1ncc(Cl)c(n1)N2)c1cnc2ccccc2n1 [Example B72, N-[6-Chloro-2,4,8,22-tetraazatetracyclo[14.3.1.1(3,7).1(9,13)]docosa-1(20), 3(22),4,6,9(21),10,12,16,18-nonaen-12-yl]quinoxaline-2-carboxamide bis(trifluoroacetate)] | 
 |  |  |  |  |  |  |  |  |  | Clc1cnc2nc1Nc1cccc(c1)SCCNc1cccc(c1)N2 [Example D80, 6-Chloro-14-thia-2,4,8,17,24-pentaazatetracyclo[16.3.1.1(3,7).1(9,13)]tetracosa-1(22),3(24),4,6,9(23),10,12,18,20-nonaene bis(trifluoroacetate)] | IC50 ([1]; Table D1): 8.8 nM; IC50 ([2]; Table D1, 90 μM ATP): 570 nM; IC50 ([3]; Table D1): 4.9 nM; IC50 ([4]; Table D1): 7.4 nM; IC50 ([5]; Table D1): 23 nM
 |  |  |  |  | 300 nM | 29% | 118 nM | 12 nM | > 1000 nM | O=C(CC1CCN(c2cnccn2)CC1)Nc1ccc2cc1CCc1cncc(c1)Nc1ncc(Cl)c(n1)N2 [Example A171, N-[6-Chloro-2,4,8,18,22-pentaazatetracyclo[14.3.1.1(3,7).1(9,13)]docosa-1(20),3(22),4,6,9(21),10,12,16,18-nonaen-12-yl]-2-(1-pyrazin-2-ylpiperidin-4-yl)acetamide tris(trifluoroacetate)] | 
30 nM | 35% | 8.6 nM | 6 nM | 103 nM |  |  |  |  |  | Cc1csc(NC(=O)Nc2ccc3cc2CCc2cccc(c2)Nc2ncc(Cl)c(n2)N3)n1 [Example B249, N-[6-Chloro-2,4,8,22-tetraazatetracyclo[14.3.1.1(3,7).1(9,13)]docosa-1(20),3(22),4,6,9(21),10,12,16,18-nonaen-12-yl]-N′-(4-methyl-1,3-thiazol-2-yl)ureatrifluoroacetate] | 
 |  |  |  |  | > 200 nM | 31% | > 200 nM | 21 nM | > 200 nM | O=C(CC1CCN(C(=O)c2ccccc2)CC1)Nc1ccc2cc1CCc1cncc(c1)Nc1ncc(Cl)c(n1)N2 [Example A192, 2-(1-Benzoylpiperidin-4-yl)-N-[6-chloro-2,4,8,18,22-pentaazatetracyclo[14.3.1.1(3,7).1(9,13)]docosa-1(20),3(22),4,6,9(21),10,12,16,18-nonaen-12-yl]acetamide bis(trifluoroacetate)] | 
15 nM | 7.1% | 5.2 nM | 4.3 nM | 92 nM |  |  |  |  |  | CC(C)(C)c1ccccc1NC(=O)Nc1ccc2cc1CCc1cccc(c1)Nc1ncc(Cl)c(n1)N2 [Example B110, N-(2-tert-Butylphenyl)-N′-[6-chloro-2,4,8,22-tetraazatetracyclo[14.3.1.1(3,7).1(9,13)]docosa-1(20),3(22),4,6,9(21),10,12,16,18-nonaen-12-yl]urea trifluoroacetate] | 
251 nM |  | 12 nM | 36 nM | 108 nM |  |  |  |  |  | O=[N+]([O-])c1ccc(CN2CCN(Cc3cc4cc(c3)Nc3nc(ncc3Cl)Nc3cccc(c3)CC4)CC2)cc1 [Example B194, 6-Chloro-11-{[4-(4-nitrobenzyl)piperazin-1-yl]methyl}-2,4,8,22-tetraazatetracyclo[14.3.1.1(3,7).1(9,13)]docosa-1(20),3(22),4,6,9(21),10,12,16,18-nonaene tris(trifluoroacetate)] | IC50 [2, 11]: > 1000 nM
 |  |  |  |  | 175 nM | 30% | 61 nM | 56 nM | 99 nM | O=C(Nc1ccc2cc1CCc1cccc(c1)Nc1ncc(Cl)c(n1)N2)C1CCNCC1 [Example A28, N-[6-Chloro-2,4,8,22-tetraazatetracyclo[14.3.1.1(3,7).1(9,13)]docosa-1(20), 3(22),4,6,9(21),10,12,16,18-nonaen-12-yl]piperidine-4-carboxamide bis(trifluoroacetate)] | 
> 1000 nM |  | 146 nM | 188 nM | 509 nM |  |  |  |  |  | Cc1cc(C(=O)Nc2cc3cc(c2)Nc2nc(ncc2Cl)Nc2cccc(c2)CC3)no1 [Example B205, N-[6-Chloro-2,4,8,22-tetraazatetracyclo[14.3.1.1(3,7).1(9,13)]docosa-1(20),3(22),4,6,9(21),10,12,16,18-nonaen-11-yl]-5-methylisoxazole-3-carboxamide trifluoroacetate] | IC50 [2, 11]: > 10000 nM
